Data published in paper PMC12392461, “Beyond Estrogenicity: A Comparative Assessment of Bisphenol A and Its Alternatives in In Vitro Assays Questions Safety of Replacements” (Environmental Science & Technology, 2025).
Where two headings read alike, the source gives them in different places.

How the values were obtained:
SH-SY5Y cells = assay: cells; conditions: for EC10, linear / logEC10: NOI bioassay, dosing range all; for EC10, linear: linear model; for logEC10: log-logistic model; for EC10: Homo sapiens, SH-SY5Y; for Specificity ratio (SRbaseline) SRNOI: against baseline cytotoxicity; for Relative effect potency REPNOI: relative to BPA;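 as to Relative effect potency REPNOI: EC10 of BPA divided by EC10 of the test compound so values above 1 mean more potent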;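 as to Specificity ratio (SRbaseline) SRNOI: ratio of predicted baseline cytotoxicity IC10 to the neurite outgrowth inhibition EC10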
Description: (§1) All bioassay media components and the ERα-UAS-bla GripTite and PPARγ-UAS-bla cells were obtained from Thermo Fisher Scientific (Waltham, MA, USA). AREc32 reporter gene cells based on MCF7 were provided by C. Roland Wolf (Cancer Research UK); AhR CALUX cells (H4L7.5c2 derived from H4IIe) were provided by Michael Denison (UC Davis, USA); and SH-SY5Y cells were purchased from Sigma-Aldrich.
(§2) Cell culture conditions and bioassay protocols including response detection are provided in Text S2.1–2.4 and Table S3. − Cell viability was determined from cell confluency using an IncuCyte S3 Live-Cell Analysis System (Sartorius AG, Essen, Germany) before and after exposure, except for SH-SY5Y cells (live–dead staining with Nuclear Green LcS1 and propidium iodide, Abcam, UK). For metabolic activation experiments, cell viability was assessed using the ToxBLAzer DualScreen Kit (Thermo Fisher Scientific) to capture the remaining toxicity in ERα-UAS-bla GripTite after treatment with the aCYP catalyst (details in Text S2.4).
(§3) For ARE, the concentration that triggered an induction ratio of 1.5 (ECIR1.5) was used as the benchmark value, as detailed in Text S2.5. IC10 values also served as a threshold for data analysis in all assays; only concentrations below IC10 were considered when deriving EC10 or ECIR1.5. […]
(§4) S2: Cell culture and bioassays
(§5) S2.1: Cell Culturing Conditions
(§6) All suppliers and sources are given in detail in SI-Excel S3. The bioassay media for the different assays were prepared as follows: Assay medium for ER alpha-UAS-bla GripTite (ERα) and PPAR gamma-UAS-bla 293H (PPARγ) was prepared with 98% Opti-MEM, supplemented with 2% charcoal-stripped FBS, and 100 U/mL penicillin-streptomycin. MitoOxTox and AhR assay medium was comprised of 90% DMEM with GlutaMAX, supplemented with 10% FBS, and 100 U/mL penicillin-streptomycin. Neurotoxicity assay medium consisted of the neurobasal […]
(§7) (1 picture or pasted object on this page, not shown here) […]
(§8) medium, supplemented with 2% B-27 Supplement and 2 mM GlutaMAX Supplement. SH - SY5Y cells were differentiated with 10 µM all-trans retinoic acid prior to the assay.
(§9) S2.2: Cell Seeding and Incubation. For all bioassays, cell suspensions in the respective assay medium were dispensed into each well of 384-well plates using a MultiFlo Dispenser (Biotek, (now Agilent), Winooski, VT, U.S.). After seeding, the plates were incubated at 37° C and 5% CO₂ for […]. The final cell densities and plate types were as follows: Black poly-D-lysine coated 384-well plates (Product No. 354663, Corning Inc., NYC, U.S.) were used for PPARγ:
(§10) 6500 cells/well, ERα: 5000 cells/well. White 384-well plates with a clear bottom (Product No.
(§11) 781098, Greiner, Kremsmünster, Austria) were utilized for the MitoOxTox assay: 2650

[1] = system: Antioxidant response element; assay: MitoOxTox: oxidative stress response in AREc32; conditions: for logEC10 / EC10, linear: Bioassay ARE, dosing range all; for logEC10: log-logistic model fit; for Specificity ratio (SRbaseline) SRARE: against baseline cytotoxicity; for Specificity ratio (SRcytotoxicity) SRARE: against experimental cytotoxicity; for ECIR1.5, ARE: effect; for ECIR1.5, ARE / ECIR1.5, ARE (M): induction ratio 1.5; for log(1/EC10) AREc32: input of the ToxPi score, values up to 1.00; for SR (ARE): specificity ratio; for EC10, linear: linear model fit
Description: as §1, §2, §3, §4, §5, §6, §7, §8, §9, §10, §11

[2] = Acidity constant (pKa) measurement, Sirius T3 UV-metric, and speciation at pH 7.4; conditions: for Double negative form (pH = 7.40) / Negative form (pH = 7.40) / Neutral form (pH = 7.40) / αneutral % (fraction of neutral species): from experimental pKa; for αneutral % (fraction of neutral species): pH 7.4; for pKa: pKa (Acid)
Procedure: Physicochemical properties provide input parameters for the baseline toxicity model. Acidity constants (pK a) and octanol–water partition constants of the neutral species (K ow) were measured with a Sirius T instrument from Pion Inc. (Sussex, UK) (Text S1.2 and Table S1). A detailed description of the pK a and K ow measurements can be found in literature. , […]
S1.2: pKa and log Kow measurements […]
titrator (Pion Inc., Sussex, U.K.). A detailed description of the experimental procedure is available in the literature.1 In brief, each sample was prepared by mixing 5 µL of a 10 mM dimethyl sulfoxide (DMSO) stock solution with 25 µL of a phosphate buffer solution (14.4 mM […]
A reference vial containing 5 µL of DMSO
(Roth, A994-100 ML) and 25 µL of phosphate buffer was analyzed alongside each sample.
The pKa values were determined using the automated UV-metric pKa protocol within the Sirius T3 Control software (version 2.0.0.0.). Each sample was subjected to three consecutive […]
from 2 to 12 by stepwise addition of 0.5 M HCl or 0.5 M potassium hydroxide while recording […]
UV absorbance. […]
To ensure reproducibility, measurements were conducted on at least two

[3] = molecular target: T1, Peroxisome proliferator-activated receptor γ (Homo sapiens, UniProt P37231); assay: cell-based; conditions: for EC10, PPARγ (M): 10% of maximum effect of rosiglitazone; for EC10, linear transformed / EC10, linear / logEC10: PPARγ bioassay, dosing range all; for EC10, linear: linear model; for logEC10: log-logistic model; for SR-ScorePPARγ: SR-Score, sigma k=1, x=5; for EC10, PPARγ: effect; for log(1/EC10) PPARγ: input of the ToxPi score, values up to 1.00; for Emax: read-out: Emax%PPARγ; for Specificity ratio (SRbaseline) SRPPARγ: against baseline cytotoxicity; for Specificity ratio (SRcytotoxicity) SRPPARγ: against experimental cytotoxicity
T1 sequence (P37231 238-505 limits assumed): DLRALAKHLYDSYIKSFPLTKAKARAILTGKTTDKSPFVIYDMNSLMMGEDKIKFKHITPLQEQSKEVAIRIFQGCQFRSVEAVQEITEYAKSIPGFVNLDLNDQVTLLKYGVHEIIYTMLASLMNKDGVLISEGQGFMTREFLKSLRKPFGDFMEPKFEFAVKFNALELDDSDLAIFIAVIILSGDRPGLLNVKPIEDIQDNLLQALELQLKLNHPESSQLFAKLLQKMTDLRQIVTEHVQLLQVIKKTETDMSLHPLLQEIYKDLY
Description: as §1, §2
For ARE, the concentration that triggered an induction ratio of 1.5 (ECIR1.5) was used as the benchmark value, as detailed in Text S2.5. IC10 values also served as a threshold for data analysis in all assays; only concentrations below IC10 were considered when deriving EC10 or ECIR1.5.
The maximum efficacy (Emax%) refers to the maximum of the log–logistic concentration–response curve attained by test chemicals compared to the reference chemical’s maximum and was obtained for both ERα and PPARγ. […]
as §4, §5
All suppliers and sources are given in detail in SI-Excel S3. The bioassay media for the different assays were prepared as follows: Assay medium for ER alpha-UAS-bla GripTite (ERα) and […]
2% charcoal-stripped FBS, and 100 U/mL penicillin-streptomycin. […]
as §9, with “coated 384-well plates (Product No. 354663, Corning Inc., NYC, U.S.) were used for PPARγ:” left out
6500 cells/well, ERα: 5000 cells/well. White 384-well plates with a clear bottom (Product No. […]
S2.3: Chemical Dosing and Assay Analysis Procedures.

[4] = Arec32, read-out: EC10, linear transformed
[5] = phosphate buffer with […] KCl, Sirius T3 titrator, experimental, this study
[6] = read-out: EC10, linear transformed

Row | SMILES | EC10, linear (SH-SY5Y cells) | logEC10 (SH-SY5Y cells) | EC10 ([1]; Arec32, read-out: EC10, linear) [µM] | EC10 [1, 4] [µM] | logEC10 [1] | Double negative form (pH = 7.40) [2] [%] | Negative form (pH = 7.40) [2] [%] | Neutral form (pH = 7.40) [2] [%] | αneutral % (fraction of neutral species) [2] [%] | pKa [2, 5] | EC10, PPARγ (M) [3] | EC10, linear transformed [3] | EC10, linear [3] | logEC10 [3] | SR-ScorePPARγ [3] | EC10, PPARγ [3] [µM] | log(1/EC10) PPARγ [3] | Emax [3] [%] | EC10 (SH-SY5Y cells; [6]) [M] | EC10 (SH-SY5Y cells; read-out: EC10, NOI) [M] | further results
1 | Oc1ccc(Sc2ccc(O)cc2)cc1 [BPT, 4,4'-Thiodiphenol] | no effect | no effect | 85.6 | 1500 | masked by cytotoxicity | 0.0324 | 4.47 | 96 | 96 | 8.73 | 9.61 × 10^–7 M | 9.61E-07 | 1.48E-06 | -6.02 | 1.00 | 0.961 | 0.85 | 20 | – | – | pKa ([2]; phosphate buffer with […] KCl, Sirius T3 titrator, second pKa column, experimental, this study): 9.54
2 | O=C(OCc1ccccc1)c1ccc(O)cc1 [BzPB, Benzyl 4-hydroxybenzoate] | no effect | no effect | 32.1 | 16.7 | – | – | 0.599 | 99 | 99 | 9.62 | 2.04 × 10^–6 M | 2.04E-06 | 2.87E-06 | -5.69 | 1.00 | 2.04 | 0.80 | 16 | 0.000412 | – | EC10 ([1]; Arec32, read-out: logEC10): 19.5 µM; Specificity ratio (SRbaseline) SRARE [1]: 1.73; Specificity ratio (SRcytotoxicity) SRARE [1]: 4.62; ECIR1.5, ARE [1]: 19.4 µM; ECIR1.5, ARE (M) [1]: 1.94 × 10^–5 M; log(1/EC10) AREc32 [1]: 1.00; SR (ARE) [1]: < 10; Specificity ratio (SRbaseline) SRPPARγ [3]: 8.14; Specificity ratio (SRcytotoxicity) SRPPARγ [3]: 22.95
3 | CC(C)Oc1ccc(S(=O)(=O)c2ccc(O)cc2)cc1 [D8, 4-((4-Isopropoxyphenyl)sulfonyl)phenol] | – | – | 1080 | 932 | – | – | 39 | 61 | 61 | 7.6 | – | – | 5.40E-06 | no effect | – | – | – | – | 0.000186 | 0.000191 | EC10 (SH-SY5Y cells; read-out: EC10, NOI (M)): 0.000191 M; EC10 (SH-SY5Y cells; read-out: EC10, linear): 0.000353 M; EC10 (SH-SY5Y cells; read-out: logEC10): 0.000191 M; Specificity ratio (SRbaseline) SRNOI (SH-SY5Y cells): 0.56; Specificity ratio (SRcytotoxicity) SRNOI (SH-SY5Y cells; against experimental cytotoxicity): 2.56; Relative effect potency REPNOI (SH-SY5Y cells): 0.27; EC10 ([1]; Arec32, read-out: logEC10): 1230 µM; Specificity ratio (SRbaseline) SRARE [1]: 0.11; Specificity ratio (SRcytotoxicity) SRARE [1]: 1.77; ECIR1.5, ARE [1]: 1220 µM; ECIR1.5, ARE (M) [1]: 1.22 × 10^–3 M; log(1/EC10) AREc32 [1]: 0.62; SR (ARE) [1]: < 10
4 | CC(C)c1cc(C(C)(C)c2ccc(O)c(C(C)C)c2)ccc1O [BPG, 2,2-Bis(4-hydroxy-3-isopropylphenyl)propane] | no effect | no effect | – | – | no effect | 4.07e-6 | 0.0363 | 100 | 100 | – | 1.17 × 10^–7 M | 1.17E-07 | 1.61E-07 | -6.93 | 1.00 | 0.117 | 0.98 | 22 | 2.67e-05 | – | EC10, linear [1]: no effect; pKa ([2]; second pKa column, experimental, this study): 11.3; pKa ([2]; experimental, this study): 10.8; Specificity ratio (SRbaseline) SRPPARγ [3]: 12.28; Specificity ratio (SRcytotoxicity) SRPPARγ [3]: 54.95
5 | CC1(C)C(O)C(C)(C)C1O (racemic) [r-TMCD, 2,2,4,4-Tetramethyl-1,3-cyclobutanediol (racemate)] | – | – | – | – | no effect | 0 | 0 | 100 | 100 | – | – | – | no effect | no effect | – | – | – | – | 0.00599 | 0.00599 | EC10 (SH-SY5Y cells; read-out: EC10, NOI (M)): 0.00599 M; EC10 (SH-SY5Y cells; read-out: EC10, linear): 0.00494 M; EC10 (SH-SY5Y cells; read-out: logEC10): 0.00603 M; Specificity ratio (SRbaseline) SRNOI (SH-SY5Y cells): 0.17; Relative effect potency REPNOI (SH-SY5Y cells): 0.00848; EC10, linear [1]: no effect
6 | CC(C)(c1ccc(O)cc1)c1ccc(O)cc1 [BPA, 4,4'-(Propane-2,2-diyl)diphenol, reference compound] | – | – | – | 1510 | masked by cytotoxicity | 9.99e-6 | – | 100 | 100 | – | – | – | no effect | no effect | – | – | – | – | 7.63e-05 | 5.08e-05 | EC10 (SH-SY5Y cells; read-out: EC10, NOI (M)): 5.08e-05 M; EC10 (SH-SY5Y cells; read-out: EC10, linear): 7.16e-05 M; EC10 (SH-SY5Y cells; read-out: logEC10): 5.13e-05 M; Specificity ratio (SRbaseline) SRNOI (SH-SY5Y cells): 0.40; Specificity ratio (SRcytotoxicity) SRNOI (SH-SY5Y cells; human, 24 h): 4.68; Relative effect potency REPNOI (SH-SY5Y cells): 1.00; SR (neurite outgrowth inhibition) (SH-SY5Y cells; specificity ratio): < 10; oxidative stress response (ARE activation) [1]: did not induce ARE; EC10, linear [1]: no effect; pKa (Acid) [2]: 9.85; pKa [2]: 8.78; PPARγ activation ([3]; at concentrations up to IC10): did not activate PPARγ
